Data taken from US11364248B2 (AMGEN INC., priority 2017, dated 2022).
Where two headings read alike, the source gives them in different places.

Tests used:
Mcl-1/Bim interaction = Mcl-1/Bim interaction (Homo sapiens (Human), UniProt Q07820); experiment: Cell Free Mcl-1: Bim Affinity Assay (Mcl-1 HTRF); format: binding; settings: TR-FRET, recombinant human Mcl-1(171-327), biotin-Bim(51-76); read-out: Mel-1 HTRF IC50
How it was run: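 TR-FRET competition assay: 0.1 nM His-tagged human Mcl-1(171-327) and 0.05 nM biotin-Bim(51-76) were pre-incubated 60 min with compound in 20 mM Hepes pH 7.5, 150 mM NaCl, Brij35, 1 mM DTT, then with Eu-anti-His/streptavidin-Xlent overnight. The 665/620 nm ratio was fitted by four-parameter model to IC50 (duplicates).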

OPM-2 = experiment: Cell Viability Assay (OPM-2 10 FBS); format: cell-based, human; settings: OPM-2 cells, CellTiter-Glo, read-out: OPM-2 10% FBS IC50 IP
How it was run: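 OPM-2 myeloma cells seeded at 3000 cells/well in RPMI 1640 with 10% FBS and exposed to serially diluted compounds for 16 h at 37° C., 5% CO2.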

Chain of Mcl-1/Bim interaction (Q07820 171-327): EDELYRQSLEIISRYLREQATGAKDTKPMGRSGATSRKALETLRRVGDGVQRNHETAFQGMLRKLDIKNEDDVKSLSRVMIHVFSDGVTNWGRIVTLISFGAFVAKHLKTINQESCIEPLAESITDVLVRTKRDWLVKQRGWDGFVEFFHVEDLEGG

Row | IC50 (Mcl-1/Bim interaction) [nM] | SMILES | IC50 (OPM-2; 16 h) [nM] | IC50 (OPM-2; Homo sapiens, OPM-2, 16 h) [nM]
1 | 1.05 | C[C@@H]1[C@@H](C)CCC[C@H]([C@H]2OC[C@@H](N3CCCC3)CO2)[C@@H]2CC[C@H]2CN2C[C@@]3(CCCc4cc(Cl)ccc43)COc3ccc(cc32)C(=O)NS1(=O)=O [Example 19, (1S,3′R,6′R,7′S,11′S,12′R)-6-chloro-11′,12′-dimethyl-7′-(cis-5-(1-pyrrolidinyl)-1,3-dioxan-2-yl)-3,4-dihydro-2H,15′H-spiro[naphthalene-1,22′-[20]oxa[13]thia[1,14]diazatetracyclo [14.7.2.0~3,6~.0~19,24~]pentacosa[16,18,24]trien]-15′-one 13′,13′-dioxide] | 527 | 
2 | 0.444 | C[C@@H]1[C@@H](C)CCC[C@H]([C@H]2OC[C@@H](N3CCCC3)CO2)[C@@H]2CC[C@H]2CN2C[C@@]3(CCCc4cc(Cl)ccc43)COc3ccc(cc32)C(=O)NS1(=O)=O [Example 22, (1S,3′R,6′R,7′S,11′S,12′R)-6-chloro-11′,12′-dimethyl-7′-(cis-5-(1-pyrrolidinyl)-1,3-dioxan-2-yl)-3,4-dihydro-2H,15′H-spiro[naphthalene-1,22′-[20]oxa[13]thia[1,14]diazatetracyclo [14.7.2.0~3,6~.0~19,24~]pentacosa[16,18,24]trien]-15′-one 13′,13′-dioxide] | 65 | 
3 | 0.37 | CCN[C@H]1CO[C@H]([C@H]2CCC[C@H](C)[C@@H](C)S(=O)(=O)NC(=O)c3ccc4c(c3)N(C[C@@H]3CC[C@H]32)C[C@@]2(CCCc3cc(Cl)ccc32)CO4)OC1 [Example 27, (1S,3′R,6′R,7′S,11′S,12′R)-6-chloro-7′-(trans-5-(ethylamino)-1,3-dioxan-2-yl)-11′,12′-dimethyl-3,4-dihydro-2H,15′H-spiro[naphthalene-1,22′-[20]oxa[13]thia[1,14]diazatetracyclo [14.7.2.0~3,6~.0~19,24~]pentacosa[16,18,24]trien]-15′-one 13′,13′-dioxide] |  | 155
4 | 0.477 | CCN(CC)[C@H]1CO[C@H]([C@H]2CCC[C@H](C)[C@@H](C)S(=O)(=O)NC(=O)c3ccc4c(c3)N(C[C@@H]3CC[C@H]32)C[C@@]2(CCCc3cc(Cl)ccc32)CO4)OC1 [Example 28, (1S,3′R,6′R,7′S,11′S,12′R)-6-chloro-7′-(trans-5-(diethylamino)-1,3-dioxan-2-yl)-11′,12′-dimethyl-3,4-dihydro-2H,15′H-spiro[naphthalene-1,22′-[20]oxa[13]thia[1,14]diazatetracyclo [14.7.2.0~3,6~.0~19,24~]pentacosa[16,18,24]trien]-15′-one 13′,13′-dioxide] |  | 403
5 | 0.217 | CC(=O)N1C[C@@H]2O[C@@H]([C@H]3CCC[C@H](C)[C@@H](C)S(=O)(=O)NC(=O)c4ccc5c(c4)N(C[C@@H]4CC[C@H]43)C[C@@]3(CCCc4cc(Cl)ccc43)CO5)O[C@@H]2C1 [Example 36, (1S,3′R,6′R,7′S,11′S,12′R)-7′-((2r,3aR,6aS)-5-acetyltetrahydro-3aH-[1,3]dioxolo[4,5-c]pyrrol-2-yl)-6-chloro-11′,12′-dimethyl-3,4-dihydro-2H,15′H-spiro[naphthalene-1,22′-[20]oxa[13]thia[1,14]diazatetracyclo [14.7.2.0~3,6~.0~19,24~]pentacosa[16,18,24]trien]-15′-one 13′,13′-dioxide] | 169 | 
6 | 0.098 | CC(=O)N1C[C@@H]2O[C@H]([C@H]3CCC[C@H](C)[C@@H](C)S(=O)(=O)NC(=O)c4ccc5c(c4)N(C[C@@H]4CC[C@H]43)C[C@@]3(CCCc4cc(Cl)ccc43)CO5)O[C@@H]2C1 [Example 37, (1S,3′R,6′R,7′S,11′S,12′R)-7′-((2s,3aR,6aS)-5-acetyltetrahydro-3aH-[1,3]dioxolo[4,5-c]pyrrol-2-yl)-6-chloro-11′,12′-dimethyl-3,4-dihydro-2H,15′H-spiro[naphthalene-1,22′-[20]oxa[13]thia[1,14]diazatetracyclo [14.7.2.0~3,6~.0~19,24~]pentacosa[16,18,24]trien]-15′-one 13′,13′-dioxide] | 148 | 
7 | 0.537 | CC(=O)N1C[C@@H]2O[C@@H]([C@H]3CCC[C@H](C)[C@@H](C)S(=O)(=O)NC(=O)c4ccc5c(c4)N(C[C@@H]4CC[C@H]43)C[C@@]3(CCCc4cc(Cl)ccc43)CO5)O[C@@H]2C1 [Example 38, (1S,3′R,6′R,7′S,11′S,12′R)-7′-((2r,3aR,6aS)-5-acetyltetrahydro-3aH-[1,3]dioxolo[4,5-c]pyrrol-2-yl)-6-chloro-11′,12′-dimethyl-3,4-dihydro-2H,15′H-spiro[naphthalene-1,22′-[20]oxa[13]thia[1,14]diazatetracyclo [14.7.2.0~3,6~.0~19,24~]pentacosa[16,18,24]trien]-15′-one 13′,13′-dioxide] | 819 | 
8 | 0.577 | C[C@@H]1[C@@H](C)CCC[C@H]([C@H]2OC[C@](N)(CO)CO2)[C@@H]2CC[C@H]2CN2C[C@@]3(CCCc4cc(Cl)ccc43)COc3ccc(cc32)C(=O)NS1(=O)=O [Example 40, (1S,3′R,6′R,7′S,11′S,12′R)-7′-(cis-5-amino-5-(hydroxymethyl)-1,3-dioxan-2-yl)-6-chloro-11′,12′-dimethyl-3,4-dihydro-2H,15′H-spiro[naphthalene-1,22′-[20]oxa[13]thia[1,14]diazatetracyclo [14.7.2.0~3,6~.0~19,24~]pentacosa[16,18,24]trien]-15′-one 13′,13′-dioxide] | 1560 | 
9 | 0.568 | CC(=O)N(C)[C@H]1CO[C@@H]([C@H]2CCC[C@H](C)[C@@H](C)S(=O)(=O)NC(=O)c3ccc4c(c3)N(C[C@@H]3CC[C@H]32)C[C@@]2(CCCc3cc(Cl)ccc32)CO4)OC1 [Example 47, N-(cis-2-((1S,3′R,6′R,7′S,11′S,12′R)-6-chloro-11′,12′-dimethyl-13′,13′-dioxido-15′-oxo-3,4-dihydro-2H-spiro[naphthalene-1,22′-[20]oxa[13]thia[1,14]diazatetracyclo [14.7.2.0~3,6~.0~19,24~]pentacosa[16,18,24]trien]-7′-yl)-1,3-dioxan-5-yl)-N-methylacetamide] |  | 545
10 | 0.59 | CN[C@H]1CO[C@H]([C@H]2CCC[C@H](C)[C@@H](C)S(=O)(=O)NC(=O)c3ccc4c(c3)N(C[C@@H]3CC[C@H]32)C[C@@]2(CCCc3cc(Cl)ccc32)CO4)OC1 [Example 48, (1S,3′R,6′R,7′S,11′S,12′R)-6-chloro-11′,12′-dimethyl-7′-(trans-5-(methylamino)-1,3-dioxan-2-yl)-3,4-dihydro-2H,15′H-spiro[naphthalene-1,22′-[20]oxa[13]thia[1,14]diazatetracyclo [14.7.2.0~3,6~.0~19,24~]pentacosa[16,18,24]trien]-15′-one 13′,13′-dioxide] | 184 | 
11 | 1.52 | CN[C@H]1CO[C@H]([C@H]2CCC[C@H](C)[C@@H](C)S(=O)(=O)NC(=O)c3ccc4c(c3)N(C[C@@H]3CC[C@H]32)C[C@@]2(CCCc3cc(Cl)ccc32)CO4)OC1 [Example 49, (1S,3′R,6′R,7′S,11′S,12′R)-6-chloro-11′,12′-dimethyl-7′-(trans-5-(methylamino)-1,3-dioxan-2-yl)-3,4-dihydro-2H,15′H-spiro[naphthalene-1,22′-[20]oxa[13]thia[1,14]diazatetracyclo [14.7.2.0~3,6~.0~19,24~]pentacosa[16,18,24]trien]-15′-one 13′,13′-dioxide] | 966 | 
12 | 5.02 | C[C@@H]1[C@@H](C)CCC[C@](C)([C@H]2OC[C@@H](N(C)C)CO2)[C@@H]2CC[C@H]2CN2C[C@@]3(CCCc4cc(Cl)ccc43)COc3ccc(cc32)C(=O)NS1(=O)=O [Example 65, (1S,3′R,6′R,7′S,11′S,12′R)-6-chloro-7′-(cis-5-(dimethylamino)-1,3-dioxan-2-yl)-7′,11′,12′-trimethyl-3,4-dihydro-2H,15′H-spiro[naphthalene-1,22′-[20]oxa[13]thia[1,14]diazatetracyclo [14.7.2.0~3,6~.0~19,24~]pentacosa[16,18,24]trien]-15′-one 13′,13′-dioxide] |  | 1560

Row | SMILES | IC50 (Mcl-1/Bim interaction) [nM] | IC50 (OPM-2; 16 h) [nM] | IC50 (OPM-2; Homo sapiens, OPM-2, 16 h) [nM]
13 | C[C@@H]1[C@@H](C)CCC[C@H]([C@H]2OC[C@@H](N3CC4(COC4)C3)CO2)[C@@H]2CC[C@H]2CN2C[C@@]3(CCCc4cc(Cl)ccc43)COc3ccc(cc32)C(=O)NS1(=O)=O [Example 60, (1S,3′R,6′R,7′S,11′S,12′R)-6-chloro-11′,12′-dimethyl-7′-(cis-5-(2-oxa-6-azaspiro[3.3]hept-6-yl)-1,3-dioxan-2-yl)-3,4-dihydro-2H,15′H-spiro[naphthalene-1,22′-[20]oxa[13]thia[1,14]diazatetracyclo [14.7.2.0~3,6~.0~19,24~]pentacosa[16,18,24]trien]-15′-one 13′,13′-dioxide] | 0.897 |  | 610
14 | CCN(C)[C@H]1CO[C@@H]([C@H]2CCC[C@H](C)[C@@H](C)S(=O)(=O)NC(=O)c3ccc4c(c3)N(C[C@@H]3CC[C@H]32)C[C@@]2(CCCc3cc(Cl)ccc32)CO4)OC1 [Example 66, (1S,3′R,6′R,7′S,11′S,12′R)-6-chloro-7′-(cis-5-(ethyl(methyl)amino)-1,3-dioxan-2-yl)-11′,12′-dimethyl-3,4-dihydro-2H,15′H-spiro[naphthalene-1,22′-[20]oxa[13]thia[1,14]diazatetracyclo [14.7.2.0~3,6~.0~19,24~]pentacosa[16,18,24]trien]-15′-one 13′,13′-dioxide] | 1.29 |  | 326
